Values belong to the molecule of their own block, whether it stands above or below them.
Target: T1, GhmMDH1 (Gossypium hirsutum, UniProt A0A1U8J4P3)
T1 construct: gene LOC107903665; N-terminus […]; (27-residue mitochondrial target signal)
Assay: NADH/NAD+ absorbance at […] nm, nonlinear regression
Type: biochemical
Conditions: 50 mM MOPS pH 7.5, 25 °C

T1 sequence (A0A1U8J4P3 entry or part of it): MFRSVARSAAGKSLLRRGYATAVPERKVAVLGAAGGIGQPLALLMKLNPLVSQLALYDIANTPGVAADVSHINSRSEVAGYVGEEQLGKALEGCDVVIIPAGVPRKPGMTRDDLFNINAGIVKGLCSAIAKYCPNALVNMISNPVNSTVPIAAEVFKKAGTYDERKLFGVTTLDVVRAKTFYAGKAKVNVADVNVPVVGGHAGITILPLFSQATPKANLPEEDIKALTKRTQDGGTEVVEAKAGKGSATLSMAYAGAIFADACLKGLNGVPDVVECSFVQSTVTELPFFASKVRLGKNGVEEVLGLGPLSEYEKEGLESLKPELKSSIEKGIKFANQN

Km (0.5 mM OAA): 107 ± 19 µM
Compound: NC(=O)C1=CN([C@@H]2O[C@H](COP(=O)(O)OP(=O)(O)OC[C@H]3O[C@@H](n4cnc5c(N)ncnc54)[C@H](O)[C@@H]3O)[C@@H](O)[C@H]2O)C=CC1 [NADH]

Km (50 mM L-malate): 766 ± 84 µM
Compound: NC(=O)c1ccc[n+]([C@@H]2O[C@H](COP(=O)(O)OP(=O)(O)OC[C@H]3O[C@@H](n4cnc5c(N)ncnc54)[C@H](O)[C@@H]3O)[C@@H](O)[C@H]2O)c1 [NAD^+]

Km (0.2 mM NADH): 132 ± 25 µM
Compound: O=C(O)CC(=O)C(=O)O [OAA]

Km (1.0 mM NAD+): 2910 ± 290 µM
Compound: O=C(O)C[C@H](O)C(=O)O [Malate]
